Laboratory results: patent US6784165B1, “Treatment of heart rhythm disturbances with N6-substituted-5′-(N-substituted) carboxamidoadenosines” (Aderis Pharmaceuticals, Inc., priority 1999, dated 2004)
Where two headings read alike, the source gives them in different places.

Key:
adenosine A1 receptor [1] = biological target: T1, adenosine A1 receptor (Rattus norvegicus, UniProt P25099); test: Negative inotropic response in electrically stimulated rat isolated left atria (isoproterenol-stimulated); set-up: from tissue; host or cells: whole animal (conscious Sprague-Dawley rats); conditions: plateau negative inotropic response, 1 Hz, isoproterenol 10^−8 M
T1 sequence (P25099 1-326): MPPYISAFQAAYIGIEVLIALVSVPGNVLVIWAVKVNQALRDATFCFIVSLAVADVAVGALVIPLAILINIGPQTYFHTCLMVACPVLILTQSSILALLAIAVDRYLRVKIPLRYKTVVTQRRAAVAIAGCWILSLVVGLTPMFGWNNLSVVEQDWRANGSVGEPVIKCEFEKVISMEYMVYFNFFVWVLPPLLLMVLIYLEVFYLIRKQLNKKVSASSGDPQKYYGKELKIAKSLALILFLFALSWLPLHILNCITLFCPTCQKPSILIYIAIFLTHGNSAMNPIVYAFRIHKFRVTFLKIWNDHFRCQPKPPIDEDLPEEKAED
Source text: (§1) Concentration dose-effect curve data were fitted to a sigmoid curve using Graphpad PRIZM™ software to obtain the concentration or dose of test compound that produces 50% of the maximal obtainable response, in vitro EC50 or in vivo ED50 values, for activation of the adenosine A1 receptor. Responses measured to each dose were the plateau negative inotropic response to cumulative additions of test compound in the isolated left atria and the peak bradycardia in response to bolus intravenous injections of test compound in conscious rats. Oral bioavailability was estimated from pharmacodynamic responses using the expression: (Response AUCoral/Response AUCiv)(Doseiv/Doseoral), where Response AUC is the area under the curve for test compound-induced bradycardia over time.
Male Sprague-Dawley rats weighing 200-350 grams were sacrificed and the hearts rapidly removed and placed in a warmed Krebs-Henseleit buffer solution. The left atria were dissected free from the hearts and suspended in 30 mL jacketed isolated organ baths filled with Krebs-Henseleit buffer, oxygenated with 95% O2/5% CO2 and maintained at 37° C. Tissues were connected to a force displacement transducer under a resting tension of 1 gram. Atria were stimulated electrically at 1 Hz, 1 msec duration and supramaximal voltage to produce regular contractions of tissue.
Adenosine A1 agonists were added to the baths at increasing cumulative concentrations until a maximal decrease in the force of contraction was obtained. Because adenosine A1 agonists have only a small direct negative inotropic action in rat atria, it was necessary to stimulate β-adrenergic receptors to produce positive inotropy in order to maximize the negative intropic response and thereby facilitate measurement. Under these conditions, adenosine A1 agonists acting at A1 receptors indirectly reduce the β-adrenergic mediated positive inotropy. Accordingly, the β-adrenergic agonist isoproterenol (10^−8 M) was added to the organ baths approximately 15 minutes before the addition of the adenosine A1 agonist.

[2] = Oral bioavailability estimated from bradycardia AUC oral vs intravenous in conscious rats; format: in vivo, rat; conditions: for bioavailability: male, Sprague-Dawley, rat, in vivo
Source text: as §1
(§2) Male Sprague-Dawley rats were anesthetized with sodium pentobarbital 50 mg/kg i.p., and indwelling catheters were surgically implanted in the carotid artery and jugular vein two days prior to each experiment. During all subsequent experiments, rats were conscious and unrestrained. The carotid artery cannula was attached to a pressure transducer and blood pressure was recorded continuously throughout each experiment using a Grass polygraph. Heart rate was derived from the blood pressure signal using a Grass tachygraph. The measured parameters were allowed from 30 to 90 minutes to stabilize before the administration of test compound.
(§3) Test compounds were administered either by oral gavage using a curved, bulbed oral dosing cannula, or by intravenous administration via the jugular vein indwelling catheter. Rats dosed orally were fasted overnight before dosing, with water available ad libitum. Because the heart rate responses following intravenous administration of test compound rapidly returned to baseline, more than one dose of test compound could be administered to each rat. However, the responses to oral administration of test compounds were of a prolonged duration and therefore only a single dose could be administered to each rat.
A comparison of the area under the bradycardia vs. time curve (AUC) following intravenous administration with the AUC following oral administration was used as a measure of oral bioavailability.

adenosine A1 receptor [3] = biological target: T1, adenosine A1 receptor; test: Peak bradycardia after bolus intravenous injection in conscious rats; format: in vivo; set-up: from tissue; host or cells: whole animal (conscious Sprague-Dawley rats); conditions: bolus intravenous injections
Source text: as §1, §2, §3

Row | SMILES | EC50 (adenosine A1 receptor [1]) [nM] | bioavailability [2] [%] | ED50 (adenosine A1 receptor [3]; rat, read-out: ED50) [µmol/kg] | Oral Bioavailability [2] [%] | ED50 (adenosine A1 receptor [3]) [µmol/kg]
1 | O=C(NCCO)[C@H]1O[C@@H](n2cnc3c(NC4CCCC4)ncnc32)[C@H](O)[C@@H]1O [B] | 11.2 | 8.4 | 0.0074 | – | –
2 | CCC(CC)Nc1ncnc2c1ncn2[C@@H]1O[C@H](C(=O)NCCO)[C@@H](O)[C@H]1O [J] | 21.8 | 9.9 | 0.0083 | – | –
3 | CCCNC(=O)[C@H]1O[C@@H](n2cnc3c(NC4CCCC4)ncnc32)[C@H](O)[C@@H]1O [G] | 25.1 | 14 | 0.0323 | – | –
4 | CNC(=O)[C@H]1O[C@@H](n2cnc3c(NC4CCCC4)ncnc32)[C@H](O)[C@@H]1O [D, N^6-cyclopentyl-5′-(N-methyl)carboxamidoadenosine] | 19.1 | 20 | 0.0039 | – | –
5 | CC(C)(C)NC(=O)[C@H]1O[C@@H](n2cnc3c(NC4CCCC4)ncnc32)[C@H](O)[C@@H]1O [F, N^6-cyclopentyl-5′-(N-t-butyl)carboxamidoadenosine] | 72.4 | 34 | 0.363 | – | –

Other lines, results leading:

Row | EC50 (adenosine A1 receptor [1]) [nM] | bioavailability [2] [%] | ED50 (adenosine A1 receptor [3]; rat, read-out: ED50) [µmol/kg] | Oral Bioavailability [2] [%] | ED50 (adenosine A1 receptor [3]) [µmol/kg] | SMILES
6 | 3.8 | 38 | 0.0093 | – | – | O=C(NC1CC1)[C@H]1O[C@@H](n2cnc3c(NC4CCCC4)ncnc32)[C@H](O)[C@@H]1O [C, N^6-cyclopentyl-5′-(N-cyclopropyl)carboxamidoadenosine]
7 | 7.9 | 20 | 0.0079 | – | – | CCNC(=O)[C@H]1O[C@@H](n2cnc3c(NC(CC)CC)ncnc32)[C@H](O)[C@@H]1O [I, N^6-(3-pentyl)-5′-(N-ethyl)carboxamidoadenosine]
8 | 11 | 28 | 0.0034 | – | – | CC(C)NC(=O)[C@H]1O[C@@H](n2cnc3c(NC4CCCC4)ncnc32)[C@H](O)[C@@H]1O [E]
9 | 3.8 | – | – | 2.3 | 0.0034 | O=C(NCCO)C1OC(n2cnc3c(NC4CC5CCC4C5)ncnc32)C(O)C1O (stereo not drawn) [H]
